{
  "source": "paper PMC11695783",
  "about": "(Frontiers in Pharmacology, 2024)",
  "key": {"[1]": {"system": "TNF-α", "assay": "TNF-α in BALF of M. pneumoniae-infected mice (ELISA)", "format": "in vivo, BALB/c mice", "details": "for TNF-α in BALF (AV): group AV; for TNF-α in BALF: individual mice", "method": "(§1) Adult BALB/c mice (20–22 g) were divided into a control group, a positive group, and compound 16C groups at low (20 mg/kg), medium (40 mg/kg), and high-dose (80 mg/kg) levels and oral and intramuscular tiamulin treatment groups (40 mg/kg). We formulated the above dose range based on the dose at which tiamulin was approved for injection (10–20 mg/kg) and the dose previously reported (45 mg/kg) ([EMA, 1999]; [Xiao et al., 2016]). In summary, we selected similar doses for compound 16C in vivo study. 40 mg/kg was used as an intermediate value, one-half of it as a low dose, and two times of it as a high dose. To prepare the challenge solution, logarithmic phase culture suspensions were centrifuged at 1700 g for 10 min, and the pellets were suspended in sterile PBS to obtain 1 × 10^9 CFU/mL. Before the challenge, mice were anesthetized with tribromoethanol (250 mg/kg, IP). Mice in the control groups were intratracheally inoculated with sterile PBS, whereas mice in the other groups were intratracheally challenged with 50 μL (1 × 10^9 CFU/mL) M. pneumoniae suspension once a day for 3 days. Compound 16C and tiamulin (tiamulin-IM group) dissolved using the method mentioned in pharmacokinetic studies, and the tiamulin fumarate soluble powder was dissolved in ddH2O for oral administration. After the final challenge, antibiotics were administered at low, medium, and high-dose levels (see above) at 10 a.m. and 10 p.m. daily for 4 consecutive days. Normal saline containing 5% DMSO and 5% Tween-80 was administered as control and positive groups by thigh intramuscular injection. To compare the efficacy of compound 16C and tiamulin under the same route of administration, we used the original tiamulin for intramuscular administration in the same formulation. On the other hand, tiamulin fumarate soluble powder, approved for oral administration to treat animal mycoplasma diseases in China, was administered to mice by gavage. Based on a clinical study of lefamulin in community-acquired bacterial pneumonia (CABP), subjects were administered twice a day and the 96 ± 24 h of starting treatment was an essential point for early clinical response (ECR) ([Paukner et al., 2022]). We therefore stopped treatment at 96 h and sampled at 192 h to explore whether the disease worsened after cessation of treatment. Bronchoalveolar lavage fluid (BALF) and lungs were collected at 0, 96, 192 h (Samples of 0 h were collected before starting treatment, and mice were fed ad libitum without drug treatment during 96–192 h) after the first dose, BALF for cytokine and cytological analysis and lung for histopathological evaluation.\n(§2) Bronchoalveolar lavage was performed according to a standardized method ([Van Hoecke et al., 2017]). BALF was obtained following infusion of 0.5 mL PBS via tracheal cannulation into the lung twice (total 1 mL), and 200 µL was used for mycoplasma counts. The remaining BALF was centrifuged at 300 g for 10 min to separate the debris. The supernatants were stored at −80°C, and the debris was resuspended in the same volume of PBS containing red blood cell lysis buffer. A hemocytometer was used to count total cell numbers in BALF, and cell smears (Diff-Quik staining) were prepared to calculate the percentages of neutrophils, macrophages, and lymphocytes. IFN-γ, TNF-α, and CXCL1 levels in BALF samples were assessed using commercial ELISA kits using guidelines recommended by the manufacturer (Elabscience, Wuhan, China). Parallel data for each experimental group at each time point were obtained from six different mice."}, "[2]": {"system": "inflammatory cells in BALF (neutrophils, macrophages, lymphocytes)", "assay": "Inflammatory cell analysis in BALF of M. pneumoniae-infected mice", "format": "in vivo, BALB/c mice", "details": "for cell counts, total (AV) / cell counts, 中 (neutrophils) (AV) / cell counts, 巨 (macrophages) (AV) / cell counts, 淋 (lymphocytes) (AV): Tiamulin(40mg/kg) group; for total number of inflammatory cells in BALF compared with the positive controls: 96 h", "method": "as §1, §2"}, "[3]": {"system": "Mycoplasma pneumoniae", "assay": "In vivo pharmacodynamic study: Mycoplasma pneumoniae loads in BALF of infected mice", "set-up": "species or system BALB/c mice", "details": "for microbial reduction in BALF: 96 h; for MPcounts in BALF (AV) / MPcounts in BALF: tiamulin 40 mg/kg IM; for MPcounts in BALF (AV): group AV; for MPcounts in BALF: individual mice, listed as TiamulinIM", "method": "as §1, §2"}, "[4]": {"system": "IFN-γ", "assay": "IFN-γ in BALF of M. pneumoniae-infected mice (ELISA)", "format": "in vivo, BALB/c mice", "details": "tiamulin 40 mg/kg IM; for IFN-γ in BALF (AV): group AV; for IFN-γ in BALF: individual mice, listed as Tiamulin-IM", "method": "as §1, §2"}, "[5]": {"details": "tiamulin 40 mg/kg IM, 96 h, listed as Tiamulin-IM"}},
  "note": "Several values for one entry are separate records, joined by “and”; a condition that tells them apart may be missing. Equal values may be shown once.",
  "data": [
    {"compound": "C=C[C@]1(C)C[C@@H](OC(=O)CSCCN(CC)CC)[C@]2(C)[C@H](C)CC[C@]3(CCC(=O)[C@H]32)[C@@H](C)[C@@H]1O", "note": "[tiamulin, Tiamulin, reference compound]", "values": [
      {"measurement": "TNF-α in BALF (AV)", "setting": "[1]; [5]", "value": 25.628, "unit": "pg/mL"},
      {"measurement": "TNF-α in BALF (AV)", "setting": "[1]; tiamulin 40 mg/kg IM, 96 h, listed as TiamulinIM", "value": 25.4267, "unit": "pg/mL"},
      {"measurement": "TNF-α in BALF", "setting": "[1]; [5]", "value": "36.6513 pg/mL and 20.2192 pg/mL and 19.4095 pg/mL and 27.905 pg/mL and 23.325 pg/mL and 26.258 pg/mL"},
      {"measurement": "TNF-α in BALF (AV)", "setting": "[1]; tiamulin 40 mg/kg IM, 192 h", "value": 10.6403, "unit": "pg/mL"},
      {"measurement": "TNF-α in BALF", "setting": "[1]; tiamulin 40 mg/kg IM, 192 h, listed as Tiamulin-IM", "value": "0.9088 pg/mL and 8.569 pg/mL and 21.5375 pg/mL and 21.2768 pg/mL"},
      {"measurement": "TNF-α in BALF (AV)", "setting": "[1]; tiamulin 40 mg/kg PO (fumarate soluble powder), 96 h", "value": 17.9906, "unit": "pg/mL"},
      {"measurement": "TNF-α in BALF (AV)", "setting": "[1]; tiamulin 40 mg/kg PO (fumarate soluble powder), 192 h", "value": 9.318, "unit": "pg/mL"},
      {"measurement": "cell counts, total (AV)", "setting": "[2]; time 0", "value": 30.4125, "unit": "n*10^5"},
      {"measurement": "cell counts, 中 (neutrophils) (AV)", "setting": "[2]; time 0", "value": 26.5281, "unit": "n*10^5"},
      {"measurement": "cell counts, 巨 (macrophages) (AV)", "setting": "[2]; time 0", "value": 3.545, "unit": "n*10^5"},
      {"measurement": "cell counts, 淋 (lymphocytes) (AV)", "setting": "[2]; time 0", "value": 0.3394, "unit": "n*10^5"},
      {"measurement": "cell counts, total (AV)", "setting": "[2]; time 96", "value": 9.854, "unit": "n*10^5"},
      {"measurement": "cell counts, 中 (neutrophils) (AV)", "setting": "[2]; time 96", "value": 1.672, "unit": "n*10^5"},
      {"measurement": "cell counts, 巨 (macrophages) (AV)", "setting": "[2]; time 96", "value": 3.529, "unit": "n*10^5"},
      {"measurement": "cell counts, 淋 (lymphocytes) (AV)", "setting": "[2]; time 96", "value": 4.653, "unit": "n*10^5"},
      {"measurement": "cell counts, total (AV)", "setting": "[2]; time 192", "value": 10.35, "unit": "n*10^5"},
      {"measurement": "cell counts, 中 (neutrophils) (AV)", "setting": "[2]; time 192", "value": 0.1129, "unit": "n*10^5"},
      {"measurement": "cell counts, 巨 (macrophages) (AV)", "setting": "[2]; time 192", "value": 3.034, "unit": "n*10^5"},
      {"measurement": "cell counts, 淋 (lymphocytes) (AV)", "setting": "[2]; time 192", "value": 7.204, "unit": "n*10^5"},
      {"measurement": "total number of inflammatory cells in BALF compared with the positive controls", "setting": "[2]; tiamulin intramuscular 40 mg/kg", "value": "significantly lower"},
      {"measurement": "number of cells in BALF four days following treatment cessation", "setting": "[2]; tiamulin intramuscular 40 mg/kg, 192 h, similar to control group (P> 0.05)", "value": "lower than that of the positive control"},
      {"measurement": "total number of inflammatory cells in BALF compared with the positive controls", "setting": "[2]; tiamulin orally administered 40 mg/kg", "value": "not statistically significant"},
      {"measurement": "microbial reduction in BALF", "setting": "[3]; tiamulin 40 mg/kg IM twice daily 4 d", "value": 2.26, "unit": "log10 CFU/mL"},
      {"measurement": "MPcounts in BALF (AV)", "setting": "[3]; 96h", "value": 3.805, "unit": "Log10CFU/mL"},
      {"measurement": "MPcounts in BALF", "setting": "[3]; 96h", "value": "3.506 Log10CFU/mL and 3.899 Log10CFU/mL and 3.382 Log10CFU/mL and 5.052 Log10CFU/mL and 3.608 Log10CFU/mL and 3.384 Log10CFU/mL"},
      {"measurement": "MPcounts in BALF (AV)", "setting": "[3]; 192 h", "value": 3.657, "unit": "Log10CFU/mL"},
      {"measurement": "MPcounts in BALF", "setting": "[3]; 192h", "value": "3.57 Log10CFU/mL (2×) and 3.868 Log10CFU/mL and 3.692 Log10CFU/mL and 3.619 Log10CFU/mL and 3.625 Log10CFU/mL"},
      {"measurement": "microbial reduction in BALF", "setting": "[3]; tiamulin 40 mg/kg PO (tiamulin fumarate soluble powder) twice daily 4 d", "value": 1.17, "unit": "log10 CFU/mL"},
      {"measurement": "IFN-γ in BALF (AV)", "setting": "[4]; 96h", "value": 32.2202, "unit": "pg/mL"},
      {"measurement": "IFN-γ in BALF", "setting": "[4]; 96 h", "value": "44.0596 pg/mL and 23.033 pg/mL and 20.7601 pg/mL and 28.3723 pg/mL and 44.8757 pg/mL"},
      {"measurement": "IFN-γ in BALF (AV)", "setting": "[4]; 192 h", "value": 31.227, "unit": "pg/mL"},
      {"measurement": "IFN-γ in BALF", "setting": "[4]; 192 h", "value": "40.7875 pg/mL and 41.6067 pg/mL and 42.4252 pg/mL and 23.316 pg/mL and 21.0452 pg/mL and 18.1814 pg/mL"}
    ]}
  ]
}
